Assay results published in US20220057377A1, “ANALYTICAL METHOD FOR DETERMINATION OF IN VITRO DRUG RELEASE PROFILE FROM MICRONEEDLE PATCHES” (ZOSANO PHARMA CORPORATION, priority 2020, published 2022).
Values after ≈ are worked out from the molar mass of the structure shown. Values joined by “and” are separate entries in the source; they are usually repeats but may differ in a detail not shown here. Equal entries are not always repeated. Where two headings read alike, the source gives them in different places.

Tests used:
[1] = Solubility of zolmitriptan at room temperature in PBS, water and IPA (in-house); format: physicochemical
Protocol: The solubility of zolmitriptan at room temperature in phosphate buffer saline (PBS), water, and isopropyl alcohol (IPA) were evaluated in-house. Zolmitriptan API was added into 200 mL of water, 10 mM phosphate buffer saline (PBS) at pH 7.4, and IPA until saturated. The solutions were then mixed at room temperature by stir bar overnight. Saturated solutions at 2 and 24 hours were filtered and analyzed for drug concentration by HPLC.

[2] = Stability of zolmitriptan in 10 mM PBS release media; format: physicochemical
Protocol: In order for the drug to have fully released from the patches, a complete release time of 22 hours was noted. Therefore, stability of zolmitriptan in the release medium was evaluated for up to 24 hours.

[3] = Sample solution stability at 2-8° C.; format: physicochemical
Protocol: Sample solutions containing the released drug after the drug release tests were stored at 2-8° C. for a few days and injected to check the stability of the solution. Six sample solutions from each time points were aliquoted from release test tube and stored in refrigerator at 2-8 C for 15 days before being analyzed by HPLC. […] For the solution concentration is close to 1×-5× of the quantitation limit, 85%-115% recovery from fresh sample is considered reasonable.

[4] = Sink condition; format: physicochemical
Protocol: The sink condition is defined as having a volume of medium at least three times that required to form a saturated solution of drug substance. […] The microneedle patch is coated with a specific amount (mg) of the bioactive agent and is intended to deliver a certain percentage of the drug. Based on the data from the solubility study described above, the sink condition can be met by various media.
The M207 patch is coated with 1.9 mg of zolmitriptan and is intended to deliver 100% of the drug. The mean drug content specification is 90.0%-110.0% of 1.9 mg. Based on the data from the solubility study, the sink condition was met for both the water and 10 mM PBS medium when applying volume of release medium of >6 mL. This is greater than three times the saturated solution in PBS (˜1.6 mL) for 1.9 mg of zolmitriptan released from the M207 patch.

[5] = cited from earlier work

- solubility ([1]; 10 mM PBS, pH 7.4, aqueous buffer, thermodynamic from solid): ~1200 µg/mL (≈ 4.18 mM)
- Zolmitriptan Concentration (saturated solution) ([1]; 10 mM PBS, pH 7.4, mixed 24 hours, room temperature): 1213.19 µg/mL
- solubility thermodynamic at 2 h ([1]; 10 mM phosphate buffer saline, aqueous buffer, thermodynamic from solid, 10 mM PBS, pH 7.4, mixed 2 hours, room temperature, read-out: Zolmitriptan Concentration (saturated solution)): 1240 µg/mL (≈ 4.3 mM)
- Zolmitriptan Concentration (saturated solution) ([1]; 100% IPA, mixed 2 hours, room temperature): 1691.82 µg/mL
- Zolmitriptan Concentration (saturated solution) ([1]; HPLC grade Water, mixed 2 hours, room temperature): 944.05 µg/mL
- Zolmitriptan Concentration (saturated solution) ([1]; HPLC grade Water, mixed 24 hours, room temperature): 1061.33 µg/mL
- solubility ([1]; isopropyl alcohol (IPA), organic solvent or mixture, thermodynamic from solid): ~1700 µg/mL (≈ 5.92 mM)
- solubility ([1]; water, thermodynamic from solid): ~1000 µg/mL (≈ 3.48 mM)
- After 24 hours at 32° C. Concentration ([2]; T0 Concentration 0.49 μg/mL): 0.50 µg/mL
- After 24 hours at 32° C. Concentration ([2]; T0 Concentration 5.00 μg/mL): 5.02 µg/mL
- After 24 hours at 32° C. Concentration ([2]; T0 Concentration 335.94 μg/mL): 335.94 µg/mL
- stability in release media ([2]; up to 24 hours at 32° C.): remained stable
- Drug Amount ([3]; T = 15 days at 2-8 C, 1 hour release time point, Average of 6): 0.22 mg
- Drug Amount ([3]; T = 15 days at 2-8 C, 2 hours release time point, Average of 6): 0.33 mg
- Drug Amount ([3]; T = 15 days at 2-8 C, 3 hours release time point, Average of 6): 0.29 mg
- Drug Amount ([3]; T = 15 days at 2-8 C, 5 hours release time point, Average of 6): 0.42 mg
- Drug Amount ([3]; T = 15 days at 2-8 C, 12 hours release time point, Average of 6): 0.63 mg
- Drug Amount ([3]; T = 15 days at 2-8 C, 22 hours release time point, Average of 6): 0.18 mg
- Drug Amount ([3]; Time Zero, 1 hour release time point, Average of 6): 0.21 mg
- Drug Amount ([3]; Time Zero, 2 hours release time point, Average of 6): 0.33 mg
- Drug Amount ([3]; Time Zero, 3 hours release time point, Average of 6): 0.28 mg
- Drug Amount ([3]; Time Zero, 5 hours release time point, Average of 6): 0.41 mg
- Drug Amount ([3]; Time Zero, 12 hours release time point, Average of 6): 0.63 mg
- Drug Amount ([3]; Time Zero, 22 hours release time point, Average of 6): 0.17 mg
- Drug Amount ([3]; Time Zero, sample solution of 3 hours release time point, individual sample): 0.28 mg (3×) and 0.3 mg and 0.26 mg (2×)
- volume of saturated solution in PBS ([4]; for 1.9 mg of zolmitriptan released from the M207 patch): ~1.6 mL
- volume of release medium at which sink condition was met ([4]; water and 10 mM PBS medium, 1.9 mg zolmitriptan): > 6 mL
Structure (SMILES): CN(C)CCc1c[nH]c2ccc(C[C@H]3COC(=O)N3)cc12 [zolmitriptan]
- Drug Amount ([3]; T = 15 days at 2-8 C, 1 hour release time point, individual sample): 0.22 mg and 0.20 mg (2×) and 0.25 mg and 0.23 mg and 0.21 mg
- Drug Amount ([3]; T = 15 days at 2-8 C, 2 hours release time point, individual sample): 0.33 mg (3×) and 0.35 mg and 0.32 mg (2×)
- Drug Amount ([3]; T = 15 days at 2-8 C, 3 hours release time point, individual sample): 0.29 mg (2×) and 0.31 mg and 0.30 mg and 0.26 mg (2×)
- Drug Amount ([3]; T = 15 days at 2-8 C, 5 hours release time point, individual sample): 0.41 mg and 0.48 mg and 0.44 mg and 0.36 mg and 0.42 mg and 0.38 mg
- Drug Amount ([3]; T = 15 days at 2-8 C, 12 hours release time point, individual sample): 0.60 mg and 0.83 mg and 0.76 mg and 0.46 mg and 0.64 mg and 0.51 mg
- Drug Amount ([3]; T = 15 days at 2-8 C, 22 hours release time point, individual sample): 0.15 mg and 0.28 mg and 0.25 mg and 0.10 mg and 0.17 mg and 0.12 mg
- Drug Amount ([3]; Time Zero, sample solution of 1 hour release time point, individual sample): 0.21 mg and 0.2 mg (2×) and 0.19 mg and 0.24 mg and 0.22 mg
- Drug Amount ([3]; Time Zero, sample solution of 2 hours release time point, individual sample): 0.33 mg (2×) and 0.34 mg and 0.32 mg (2×) and 0.31 mg
- Drug Amount ([3]; Time Zero, sample solution of 5 hours release time point, individual sample): 0.41 mg and 0.48 mg and 0.43 mg and 0.36 mg and 0.42 mg and 0.37 mg
- Drug Amount ([3]; Time Zero, sample solution of 12 hours release time point, individual sample): 0.59 mg and 0.85 mg and 0.75 mg and 0.45 mg and 0.63 mg and 0.51 mg
- Drug Amount ([3]; Time Zero, sample solution of 22 hours release time point, individual sample): 0.15 mg and 0.27 mg and 0.24 mg and 0.09 mg and 0.17 mg and 0.12 mg
- volume of solution in which each gram of solute dissolved ([5]; aqueous solution, pH range 4-14): ~10,000 mL
- Approximate volume of solvent in mL per gram of solute ([5]; pH 1): From 10 to 30 mL per gram of solute
- Descriptive Term (solubility) ([5]; pH 1): Soluble
- Approximate volume of solvent in mL per gram of solute ([5]; pH 2): From 100 to 500 mL per gram of solute
- Descriptive Term (solubility) ([5]; pH 2): Slightly soluble
- Approximate volume of solvent in mL per gram of solute ([5]; pH 3): More than 10,000 mL per gram of solute
- Descriptive Term (solubility) ([5]; pH 3): Practically insoluble
- Approximate volume of solvent in mL per gram of solute ([5]; pH 4): More than 10,000 mL per gram of solute
- Descriptive Term (solubility) ([5]; pH 4): Practically insoluble
- Approximate volume of solvent in mL per gram of solute ([5]; pH 7): More than 10,000 mL per gram of solute
- Descriptive Term (solubility) ([5]; pH 7): Practically insoluble
- Approximate volume of solvent in mL per gram of solute ([5]; pH 14): More than 10,000 mL per gram of solute
- Descriptive Term (solubility) ([5]; pH 14): Practically insoluble
- solubility in aqueous solution (descriptive) ([5]; pH range 4-14): slightly soluble to very slightly soluble
